{
  "source": "patent US7858738B2",
  "about": "“Synthetic human peptides and pharmaceutical compositions comprising them for the treatment of systemic lupus erythematosus” (Yeda Research and Development Co., Ltd., priority 2001, dated 2010)",
  "key": {"T cell priming": {"system": "T cell priming", "conditions": "administered in PBS; Waisman et al., 1997; cited from earlier work"}, "PBL of SLE patients": {"system": "PBL of SLE patients", "assay": "Proliferative response of PBL of SLE patients to the human 16/6Id mAb", "type": "cell-based", "conditions": "PBL of one SLE patient", "protocol": "(§1) Induction and treatment of experimental SLE. In order to induce experimental SLE, BALB/c mice were immunized with 1-2 μg of the human mAb 16/6Id and boosted 3 weeks later. For the prevention of experimental SLE, mice were given hCDR1 or hCDR3 (mCDR1 or revmCDR1 as control peptide in Example 12) intravenously (i.v.) or s.c. concomitant with the immunization, and were injected weekly thereafter for 5 weeks. Treatment of an established disease started three and a half months following disease induction with the 16/6Id, when clinical manifestations were already observed. In Example 12, mice received 10 weekly injections (i.v. or s.c.) of mCDR1 or revmCDR1 at a dose of 100 μg/mouse. Prevention and treatment of SLE-like disease in (NZB×NZW)F1 mice with the hCDR1 or mCDR1 peptide. For prevention of SLE, mice at the age of 2 months, before disease manifestations are observed, were injected s.c. with hCDR1 (or mCDR1 in Example 12, 250 μg/mouse) once a week for 10 weeks. To treat an established disease, mice at the age of 5-7 months were injected with hCDR1 (in Example 12, mCDR1 s.c., 250 μg/mouse) once a week for 10 weeks. Proliferative Responses. PBL were isolated from heparinized venous blood by Ficoll-Hypaque (Pharmacia) density-gradient centrifugation. All assays were performed, in triplicate, in flat-bottomed microtiter plates (Falcon, Becton Dickinson, Oxmard, Calif., USA) in which 2×10^5 PBL were cultured in enriched RPMI-1640 as described (Dayan et al., 2000). The PBL were exposed to various concentrations (0.1-40 μg/well) of the human anti-DNA 16/6Id mAb with and without the addition of the various CDR-based peptides at a concentration of at least 10-fold excess over that of the 16/6Id. Phytohemagglutinin (PHA; 2 μg/well) was used as a control for culture conditions at each experiment. The cultures were incubated in 7.5% CO2 at 37° C. for 6 days. Eighteen hours before the cells were harvested, [^3H]-thymidine (0.5μ Ci of 5 Ci/mmol) (Nuclear Research Center, Negev, Israel) was added to all cultures. Results are expressed as the mean thymidine incorporation in counts per minute (CPM) of triplicate culture±SD, or as stimulation index (S.I.; the ratio of mean CPM at the optimal concentration of the human 16/6Id to the mean CPM in the presence of medium alone). A S.I.≧2 was considered a positive response (Dayan et al., 2000). Inhibition (the ratio of mean CPM in the presence of the 16/6Id and various CDR-based peptides to the mean CPM with the 16/6Id without the CDR-based peptide) above 50% was considered positive. Induction of Cytokine Production. Mice that were immunized with the human 16/6Id mAb and either treated or not with the CDR-based peptide, were killed at different periods during or after treatment with the peptide. Splenocytes and lymph node cells (LNC) were harvested and incubated (5×10^6/ml) in the presence of the 16/6Id. Supernatants were collected after 48 and 72 h. Assessment of Cytokines in the Supernatants. Supernatants were collected 48 hours following the initiation of the cultures and stored at −70° C. Measurements of IL-2, IL-10, IFN-γ, and TNF-α were performed by ELISA by using the relevant standards, capture and detecting Abs (Pharmingen) according to the manufacturer's instructions. TGF-β was determined by an ELISA. Briefly, plates were coated with the recombinant human TGF-β1 sRIII/Fc chimera (R & D Systems Inc., Minneapolis, Minn., USA), and the second Ab used was the biotinylated anti-human TGF-β1 antibody (R & D Systems Inc.). The substrate solution used was TMB color Reagent (Helix Diagnostics, West Sacramento, Calif.), and enzyme activity was evaluated by using 570- and 630-nm filters. Detection of SLE-Associated Clinical and Pathological Manifestations. Proteinuria was measured semiquantitatively by using Combistix kit (Ames Division, Bayer Diagnostics, Newbury, U.K.). White blood cells (WBC, for leukopenia) were counted after a 10-fold dilution of heparinized blood in distilled water containing 1% acetic acid (vol/vol). […]"}, "[1]": {"system": "SLE prone mice (NZB×NZW) F1 or MRL/lpr/lpr", "conditions": "Eilat et al., 2000 and 2001; cited from earlier work"}, "MMP-9 [2]": {"system": "MMP-9", "assay": "MMP-9 activity in sera of 16/6Id immunized BALB/c mice", "type": "in vivo", "conditions": "prevention and treatment protocols, 100 μg/mouse; FIG. 21B", "protocol": "(§2) Induction and treatment of experimental SLE. In order to induce experimental SLE, BALB/c mice were immunized with 1-2 μg of the human mAb 16/6Id and boosted 3 weeks later. For the prevention of experimental SLE, mice were given hCDR1 or hCDR3 (mCDR1 or revmCDR1 as control peptide in Example 12) intravenously (i.v.) or s.c. concomitant with the immunization, and were injected weekly thereafter for 5 weeks. Treatment of an established disease started three and a half months following disease induction with the 16/6Id, when clinical manifestations were already observed. In Example 12, mice received 10 weekly injections (i.v. or s.c.) of mCDR1 or revmCDR1 at a dose of 100 μg/mouse. Prevention and treatment of SLE-like disease in (NZB×NZW)F1 mice with the hCDR1 or mCDR1 peptide. For prevention of SLE, mice at the age of 2 months, before disease manifestations are observed, were injected s.c. with hCDR1 (or mCDR1 in Example 12, 250 μg/mouse) once a week for 10 weeks. To treat an established disease, mice at the age of 5-7 months were injected with hCDR1 (in Example 12, mCDR1 s.c., 250 μg/mouse) once a week for 10 weeks. Proliferative Responses. PBL were isolated from heparinized venous blood by Ficoll-Hypaque (Pharmacia) density-gradient centrifugation. […] Results are expressed as the mean thymidine incorporation in counts per minute (CPM) of triplicate culture±SD, or as stimulation index (S.I.; the ratio of mean CPM at the optimal concentration of the human 16/6Id to the mean CPM in the presence of medium alone). […] TGF-β was determined by an ELISA. […] The substrate solution used was TMB color Reagent (Helix Diagnostics, West Sacramento, Calif.), and enzyme activity was evaluated by using 570- and 630-nm filters. […] Proteinuria was measured semiquantitatively by using Combistix kit (Ames Division, Bayer Diagnostics, Newbury, U.K.). White blood cells (WBC, for leukopenia) were counted after a 10-fold dilution of heparinized blood in distilled water containing 1% acetic acid (vol/vol). […]"}, "MMP-9 [3]": {"system": "MMP-9", "assay": "MMP-9 activity in sera of (NZB×NZW)F1 mice (gel zymography)", "type": "in vivo", "conditions": "treatment of sick mice; FIG. 20B right", "protocol": "as §1, with “A S.I.≧2 was considered a positive response (Dayan et al., 2000). Inhibition (the ratio of mean CPM in the presence of the 16/6Id and various CDR-based peptides to the mean CPM with the 16/6Id without the CDR-based peptide) above 50% was considered positive. Induction of Cytokine Production. Mice that were immunized with the human 16/6Id mAb and either treated or not with the CDR-based peptide, were killed at different periods during or after treatment with the peptide. Splenocytes and lymph node cells (LNC) were harvested and incubated (5×10^6/ml) in the presence of the 16/6Id. Supernatants were collected after 48 and 72 h. Assessment of Cytokines in the Supernatants. Supernatants were collected 48 hours following the initiation of the cultures and stored at −70° C. Measurements of IL-2, IL-10, IFN-γ, and TNF-α were performed by ELISA by using the relevant standards, capture and detecting Abs (Pharmingen) according to the manufacturer's instructions.” left out, “Briefly, plates were coated with the recombinant human TGF-β1 sRIII/Fc chimera (R & D Systems Inc., Minneapolis, Minn., USA), and the second Ab used was the biotinylated anti-human TGF-β1 antibody (R & D Systems Inc.).” left out, “Detection of SLE-Associated Clinical and Pathological Manifestations.” left out"}, "MMP-3": {"system": "MMP-3", "assay": "MMP-3 levels in sera of 16/6Id immunized BALB/c mice (Western blot)", "type": "in vivo", "conditions": "prevention and treatment protocols, 100 μg/mouse; FIG. 21A", "protocol": "as §2, with “peptide.” for “peptide. For prevention of SLE, mice at the age of 2 months, before disease manifestations are observed, were injected s.c. with hCDR1 (or mCDR1 in Example 12, 250 μg/mouse) once a week for 10 weeks. To treat an established disease, mice at the age of 5-7 months were injected with hCDR1 (in Example 12, mCDR1 s.c., 250 μg/mouse) once a week for 10 weeks. Proliferative Responses. PBL were isolated from heparinized venous blood by Ficoll-Hypaque (Pharmacia) density-gradient centrifugation.”, “U.K.).” for “U.K.). White blood cells (WBC, for leukopenia) were counted after a 10-fold dilution of heparinized blood in distilled water containing 1% acetic acid (vol/vol).”"}},
  "data": [
    {"sequence": "YYCARFLWEPYAMDYWGQGS (Murine) [mCDR3, murine peptide based on CDR3 of the VH chain of murine mAb 5G12]", "values": [
      {"measurement": "T cell priming to the appropriate mCDR peptide or to the whole anti-DNA 16/6Id mAb", "setting": "T cell priming", "result": "inhibiting T cell priming"},
      {"measurement": "inhibition of the proliferative responses of PBL to the human 16/6Id mAb", "setting": "PBL of SLE patients; FIG. 6", "result": "did not inhibit"},
      {"measurement": "prevention or treatment of SLE induced by human 16/6Id mAb or spontaneous", "setting": "[1]", "result": "either prevent or treat an already established SLE"}
    ]},
    {"sequence": "GIWELSKEPSQKVWQMYYGT (Synthetic peptide prepared in the reversed order of SEQ ID NO 1.) [revmCDR1, control peptide synthesized in the reversed order of mCDR1]", "values": [
      {"measurement": "MMP-9 activity in sera", "setting": "MMP-9 [2]", "result": "did not affect"},
      {"measurement": "activity of MMP-9 in the sera", "setting": "MMP-9 [3]", "result": "not"},
      {"measurement": "inhibition of the proliferative responses of PBL to human 16/6Id mAb", "setting": "PBL of SLE patients; FIG. 7, reversed murine peptides as controls", "result": "failed to inhibit significantly"},
      {"measurement": "levels of MMP-3 in sera", "setting": "MMP-3", "result": "did not affect"}
    ]}
  ]
}
